# Data as given in patent EP3428169A1, “6,6A-DIHYDRO FURO[3,2-B]FURAN-2-(5H)ONE DERIVATIVES, THEIR PREPARATION AND USE FOR TREATING TUMORS” (Universita' Della Calabria, priority 2017, dated 2019).
# Experiments:
# MDA-MB-468 cells = experiment: Cell viability assay: MTT test; assay type: cell-based; conditions: for minimal effective concentration: Homo sapiens, MDA-MB-468, 72 h treatment, tested at 1, 5, 10, 20, 40 µM, p<0.05 vs untreated, read-out: concentration(s) giving significant reduction in the viability of MDA-MB-468 cells
# MCF-7 cells = experiment: Cell viability assay: MTT test; assay type: cell-based, human; conditions: for minimal effective concentration: Homo sapiens, MCF7, 72 h treatment, tested at 1, 5, 10, 20, 40 µM, p<0.05 vs untreated, read-out: concentration(s) giving significant reduction in the viability of MCF-7 cells
# 3T3-L1 cells = experiment: Cell viability assay: MTT test, non-tumour cells; assay type: cell-based, mouse; conditions: 72 h treatment; for reduction in cell viability of 3T3-L1 cells (in words): 1-40 µM; for concentration(s) giving inhibitory effect on viability of 3T3-L1 cells: tested at 1, 5, 10, 20, 40 µM
# Description: (§1) All cell lines were obtained from the American Type Culture Collection (ATCC, Manassas, VA, USA). The human mammary adenocarcinoma cells (MCF-7) were cultured in DMEM-F12 (Dulbecco's Modified Eagle's Medium (DME) and Ham's F-12 Nutrient Mixture) containing 5% newborn calf serum (NCS), 1% glutamine, 1% penicillin/streptomycin (Sigma-Aldrich, Milan, Italy). The TNBC cells (MDA-MB-231 and MDA-MB-468) were cultured in DMEM-F12 containing 10% heat-inactivated foetal bovine serum (FBS), 1% glutamine, 1% penicillin/streptomycin (Sigma-Aldrich, Milan, Italy). The 3T3L- cells 1 (immortalised mouse fibroblasts) were cultured in DMEM (Dulbecco's Modified Eagle's medium) containing 10% heat-inactivated foetal bovine serum (FBS) and 1% penicillin/streptomycin (Sigma-Aldrich, Milan, Italy). The human mammary epithelial cells MCF-10A were maintained in DMEM-F12 with 5% horse serum (HS), 1% glutamine, 1% penicillin/streptomycin, 5 µg/ml of insulin, 0.25 mg/ml of hydrocortisone, 20 ng/ml of hEGF (human epidermal growth factor) and 0.05 mg/ml of cholera enterotoxin (Sigma-Aldrich, Milan, Italy).
# (§2) All cell lines were maintained at 37°C in a 5% CO2 humidified atmosphere and periodically screened for mycoplasma contamination.
# (§3) Cell viability was evaluated using a colorimetric assay which exploits the conversion, by the mitochondrial enzyme succinate dehydrogenase (SDH), of the bromide reagent of 3-(4,5-dimethylthiazol-2-il)-2,5-diphenyltetrazole (MTT) (Sigma-Aldrich, Milan, Italy) into crystals of a product called formazan (blue-coloured).
# (§4) The cells were seeded in 48-well plates (25,000 cells/well), cultured for 72h in a complete medium before being treated for 72h with different doses (1, 5, 10, 20, 40 µM) of compounds A1, A2, A3, A4 and A5. At the end of the treatment the cells were incubated in darkness for 3h with 50 µl of a solution of MTT in PBS (2 mg/ml). The MTT solution was then carefully removed and the formazan salts that had formed were solubilised by adding 200 µl of DMSO (dimethyl sulphoxide) (Sigma-Aldrich, Milan, Italy), which imparts a pinkish colour to the solution. The coloured product was detected with the spectrophotometric method, by reading absorbance at the wavelength of 570 nm.
# (§5) Cell viability was evaluated with the MTT colorimetric assay as described above.
# MCF-10A cells = experiment: Cell viability assay: MTT test, non-tumour cells; assay type: cell-based, human; conditions: 72 h treatment; for reduction in cell viability of MCF-10A cells (in words): 1-40 µM; for concentration(s) giving inhibitory effect on viability of MCF-10A cells: tested at 1, 5, 10, 20, 40 µM
# Description: as §1, §2, §3, §4, §5
# MDA-MB-231 cells = experiment: Cell viability assay: MTT test; assay type: cell-based; conditions: for minimal effective concentration: Homo sapiens, MDA-MB-231, 72 h treatment, tested at 1, 5, 10, 20, 40 µM, p<0.05 vs untreated, read-out: concentration(s) giving significant reduction in the viability of MDA-MB-231 cells
# bcl-2 protein = experiment: Western blot analysis of expression of anti-apoptotic bcl-2; assay type: cell-based, human; conditions: 20 µM, 48h
# Description: (§6) A further confirmation of the ability of the compound of formula A4 to induce the death, by apoptosis, of MCF-7, MDA-MB231 and MDA-MB468 tumour cells was given by the evaluation, through western blot analysis, of its effect on the expression of the anti-apoptotic bcl-2 protein and on the appearance of cytochrome c in the cytosolic compartment.
# (§7) The cells were cultured in a complete medium for 72 h in 60 mm plates (1 x 10^6 cells) before being treated for 48h with compound A4 (20 µM) in order to evaluate the protein expression of bcl-2 and the expression of the cytochrome c present in the cytosolic protein fraction.
# (§8) For an analysis of the protein expression of bcl-2, after treatment the cells were lysed in ice with RIPA (Radio-Immune Precipitation Assay) buffer (50 mM Tris HCI, pH 8.0, 150 mM NaCl, 1% NP-40, 0.5% sodium deoxycholate, 0.1% SDS, sodium dodecyl sulphate), containing protease inhibitors (1 mM phenylmethylsulphonyl fluoride (PMSF), 1mM sodium orthovanadate, 20 µM aprotinin, 20 µM leupeptin) for protein extraction. The lysates were maintained under ice for 10 minutes, then centrifuged for 10 minutes at 13000 rpm at 4°C. The protein content present in the supernatant was determined spectrophotometrically using the Bradford method. The proteins were separated, based on their molecular weight, in a sodium dodecyl sulphate-polyacrylamide gel (12%) (SDS-PAGE) and then subjected to a western blot analysis as described above, using a specific primary anti-bcl-2 antibody (1:500) (Santa Cruz Biotechnology, Santa Cruz, CA, USA).
# cytochrome c = experiment: Western blot analysis of cytochrome c in the cytosolic protein fraction; assay type: cell-based, human; conditions: 20 µM, 48h
# Description: as §6, §7
# For the purpose of analysing the protein expression of the cytochrome c present in the cytosolic fraction, after treatment the cells were collected by centrifugation at 2500 rpm for 10 minutes at 4°C. The pellets were resuspended in 50 µl of sucrose buffer (250 mM sucrose, 10 mM Hepes, 10 mM KCl, 1.5 mM MgCl2, 1 mM EDTA, 1 mM EGTA) (Sigma-Aldrich, Milan, Italy) containing 20µM of aprotinin, 20 µM of leupeptin, 1mM of PMSF and 0.05% of digitonin (Sigma-Aldrich, Milan, Italy).
# The cells were incubated for 20 minutes at 4°C and then centrifuged at 13000 rpm for 15 minutes at 4°C. The protein content present in the supernatant was determined spectrophotometrically using the Bradford method. The proteins were separated, based on their molecular weight, in a sodium dodecyl sulphate-polyacrylamide gel (15%) (SDS-PAGE) and then subjected to a western blot analysis as described above, using a specific primary anti-cytochrome c antibody (1:1000) (Santa Cruz Biotechnology, Santa Cruz, CA, USA).
# parp-1 protein = experiment: Western blot analysis of cleavage/inactivation of parp-1; assay type: cell-based, human; conditions: 20 µM, 48h
# Description: as §8, with “The MCF-7, MDA-MB-231 and MDA-MB-468 cells were cultured in a complete medium for 72h in 60 mm plates (1 x 10^6 cells) before being treated for 48h with compound A4 (20 µM). After” for “For an analysis of”, “the” for “the protein expression of bcl-2, after”, “transferred onto” for “subjected to”, “nitrocellulose membrane. […]” for “western blot analysis as described above, using a specific primary anti-bcl-2 antibody (1:500) (Santa Cruz Biotechnology, Santa Cruz, CA, USA).”
# In order to be able to visualise the interaction between the primary antibody and the protein of interest, the membranes were incubated for 1 hour at room temperature, after washing with TBS-T 1X three times in order to remove any traces of the primary antibody, with a specific secondary antibody conjugated to the enzyme horseradish peroxidase (HRP) and directed against the constant portion of the primary antibody. […] In order to normalise the result, the various membranes were hot stripped for 30 minutes at 50°C with a stripping buffer (62.5 mM Tris-HCI pH 6.7, 2% SDS, 100mM β-mercaptoethanoi) and re-incubated overnight with the antibody anti-glyceraldehyde 3-phosphate dehydrogenase (GAPDH) (1: 1000) (Santa Cruz Biotechnology, Santa Cruz, CA, USA) used as a control for the quantities of proteins loaded.
SMILES,minimal effective concentration (MDA-MB-468 cells) [µM],minimal effective concentration (MCF-7 cells) [µM],reduction in cell viability of 3T3-L1 cells (in words) (3T3-L1 cells),concentration(s) giving inhibitory effect on viability of 3T3-L1 cells (3T3-L1 cells) [µM],reduction in cell viability of MCF-10A cells (in words) (MCF-10A cells),concentration(s) giving inhibitory effect on viability of MCF-10A cells (MCF-10A cells) [µM],minimal effective concentration (MDA-MB-231 cells) [µM],"effect on the viability of MDA-MB-468 cells (in words) (MDA-MB-468 cells; 72 h treatment, 1-40 µM)","effect on the viability of MCF-7 cells (in words) (MCF-7 cells; 72 h treatment, 1-40 µM)","effect on the viability of MDA-MB-231 cells (in words) (MDA-MB-231 cells; 72 h treatment, 1-40 µM)",expression of bcl-2 (bcl-2 protein; MCF-7 cells),expression of bcl-2 (bcl-2 protein; MDA-MB-231 cells),expression of bcl-2 (bcl-2 protein; MDA-MB-468 cells),level of cytochrome c in the cytosolic fraction (cytochrome c; MCF-7 cells),level of cytochrome c in the cytosolic fraction (cytochrome c; MDA-MB-231 cells),level of cytochrome c in the cytosolic fraction (cytochrome c; MDA-MB-468 cells),cleavage of the parp-1 protein (parp-1 protein; MCF-7 cells),cleavage of the parp-1 protein (parp-1 protein; MDA-MB-231 cells),cleavage of the parp-1 protein (parp-1 protein; MDA-MB-468 cells)
"CC1(C)CC2(C)OC(=O)C([Si](C)(C)C)=C2O1 (stereo not shown) [Compound A2, 5,5,6a-trimethyl-3-(trimethylsilyl)-6,6a-dihydrofuro[3,2-b]furan-2(5H)-one]",≥ 1,≥ 1,modest,≥ 20,modest,≥ 5,≥ 1,,,,,,,,,,,,
"CC1(C)CC2(c3ccccc3)OC(=O)C=C2O1 (stereo not shown) [Compound A5, 5,5-dimethyl-6a-phenyl-6,6a-dihydrofuro[3,2-b]furan-2(5H)-one]",10 to 40,5 to 40,not influenced,,not influenced,,20 to 40,slightly more effective,modest but significant effect,modest but significant effect,,,,,,,,,
"CC1(C)CC2(C)OC(=O)C(c3ccccc3)=C2O1 (stereo not shown) [Compound A1, 5,5,6a-trimethyl-3-phenyl-6,6a-dihydrofuro[3,2-b]furan-2(5H)-one]",≥ 5,≥ 10,more substantial,40,more substantial,≥ 20,≥ 10,,,,,,,,,,,,
"CC1(C)CC2(c3ccccc3)OC(=O)C([Si](C)(C)C)=C2O1 (stereo not shown) [Compound A4, 5,5-dimethyl-6a-phenyl-3-(trimethylsilyl)-6,6a-dihydrofuro[3,2-b]furan-2(5H)-one]",10 to 40,1 to 40,not influenced,,not influenced,,10 to 40,,,,decreasing the expression of bcl-2,decreasing the expression of bcl-2,decreasing the expression of bcl-2,increased to a significant degree,increased to a significant degree,increased to a significant degree,the cleaved form of the parp-1 protein may be seen,the cleaved form of the parp-1 protein may be seen,the cleaved form of the parp-1 protein may be seen
"CC12CCOC1=C([Si](C)(C)C)C(=O)O2 (stereo not shown) [Compound A3, 6a-methyl-3-(trimethylsilyl)-6,6a-dihydrofuro[3,2-b]furan-2(5H)-one]",≥ 5,≥ 10,more substantial,40,more substantial,≥ 10,≥ 5,,,,,,,,,,,,
